For series [1], the system named is CCRF-CEM. The series is described as follows: Cytotoxicity against human CCRF-CEM cells assessed as reduction in cell viability at 10 uM by MTT assay. It is filed as functional, cell-based. In general terms: Tetrazolium dyes change colour on reduction, which living cells bring about.
Series [2] can be described thus: Metabolic stability in rat liver S9 fraction assessed as half life at 100 uM measured upto 120 mins in presence of NADPH by HPLC analysis. It is filed as ADME, subcellular.
The subject of series [3] is KM12. Briefly: Cytotoxicity against human KM12 cells assessed as reduction in cell viability at 10 uM by MTT assay. It is filed as functional, cell-based.
The subject of series [4] is HCT-15. The series is described as follows: Cytotoxicity against human HCT-15 cells assessed as reduction in cell viability at 10 uM by MTT assay. It is filed as functional, cell-based.
Series [5] has as its system SW-620. The series is described as follows: Cytotoxicity against human SW620 cells assessed as reduction in cell viability at 10 uM by MTT assay. It is filed as functional, cell-based.
Series [6] relates to HT-29. Briefly: Cytotoxicity against human HT-29 cells assessed as reduction in cell viability at 10 uM by MTT assay. It is filed as functional, cell-based.
Series [7] has as its system MOLT-4. Briefly: Cytotoxicity against human MOLT-4 cells assessed as reduction in cell viability at 10 uM by MTT assay. It is filed as functional, cell-based.
Series [8] in a line: Thermodynamic aqueous solubility of compound in PBS buffer at pH 7.4 at 25 degreeC measured after 24 hrs by UPLC analysis. The settings on record: read-out: Therm_solubility. It is filed as physicochemical.
The subject of series [9] is SR. Briefly: Cytotoxicity against human SR cells assessed as reduction in cell viability at 10 uM by MTT assay. It is filed as functional, cell-based.
In series [10] the test system is K562. Briefly: Cytotoxicity against human K562 cells assessed as reduction in cell viability at 10 uM by MTT assay. It is filed as functional, cell-based.
The target of series [11] is T1, DNA topoisomerase 2-alpha (Homo sapiens, UniProt P11388). Briefly: Inhibition of human DNA topoisomerase 2 alpha assessed as ATP hydrolysis measured for 30 mins by absorbance based assay.
Series [12] relates to COLO 205. The series is described as follows: Cytotoxicity against human COLO 205 cells assessed as reduction in cell viability at 10 uM by MTT assay. It is filed as functional, cell-based.
Series [13] deals with T1, DNA topoisomerase 2-alpha. Briefly: Inhibition of human DNA topoisomerase 2 alpha assessed as relaxation of supercoiled plasmid pNO1 DNA incubated for 30 mins by fluorescence based analysis.
The subject of series [14] is HCC 2998. The series is described as follows: Cytotoxicity against human HCC 2998 cells assessed as reduction in cell viability at 10 uM by MTT assay. It is filed as functional, cell-based.
Series [15] relates to HCT-116. Briefly: Cytotoxicity against human HCT-116 cells assessed as reduction in cell viability at 10 uM by MTT assay. It is filed as functional, cell-based.
Series [16] deals with HL-60. Briefly: Cytotoxicity against human HL-60 cells assessed as reduction in cell viability at 10 uM by MTT assay. It is filed as functional, cell-based.
The target in series [17] is T2, DNA topoisomerase 1 (Homo sapiens, UniProt P11387).
T2 sequence (P11387 whole entry): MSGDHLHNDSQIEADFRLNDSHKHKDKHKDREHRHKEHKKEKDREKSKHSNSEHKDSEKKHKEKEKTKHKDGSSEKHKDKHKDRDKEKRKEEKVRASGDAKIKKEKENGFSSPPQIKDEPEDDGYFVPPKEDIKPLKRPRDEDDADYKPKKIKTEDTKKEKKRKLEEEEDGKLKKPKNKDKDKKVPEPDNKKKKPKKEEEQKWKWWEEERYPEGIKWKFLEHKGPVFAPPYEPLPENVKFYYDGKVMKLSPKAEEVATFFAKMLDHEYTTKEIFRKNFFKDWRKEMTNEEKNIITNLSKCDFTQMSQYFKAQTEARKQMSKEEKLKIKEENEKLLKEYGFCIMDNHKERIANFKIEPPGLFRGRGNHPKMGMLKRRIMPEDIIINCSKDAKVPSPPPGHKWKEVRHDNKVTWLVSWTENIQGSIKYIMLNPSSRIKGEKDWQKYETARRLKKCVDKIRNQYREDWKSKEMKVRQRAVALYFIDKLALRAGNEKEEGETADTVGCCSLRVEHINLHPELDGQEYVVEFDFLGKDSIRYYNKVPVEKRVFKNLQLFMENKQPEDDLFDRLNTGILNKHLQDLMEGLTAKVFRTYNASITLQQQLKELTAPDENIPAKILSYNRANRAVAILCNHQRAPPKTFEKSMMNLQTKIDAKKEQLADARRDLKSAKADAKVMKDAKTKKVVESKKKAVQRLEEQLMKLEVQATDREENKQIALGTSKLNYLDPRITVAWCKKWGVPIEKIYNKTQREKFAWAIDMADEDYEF
The series is described as follows: Inhibition of human DNA Topoisomerase 1 assessed as relaxation of supercoiled plasmid pBR322 DNA incubated for 30 mins by ethidium bromide staining based agarose gel electrophoresis.

In series [18] the target is DNA topoisomerase 2-beta (Homo sapiens, UniProt Q02880). The series is described as follows: Inhibition of human DNA topoisomerase 2 beta assessed as relaxation of supercoiled plasmid pBR322 DNA incubated for 30 mins by ethidium bromide staining based agarose gel electrophoresis.

Active and inactive are the calls of the source. No cut-off for these calls is given here.

T1 sequence (P11388 whole entry): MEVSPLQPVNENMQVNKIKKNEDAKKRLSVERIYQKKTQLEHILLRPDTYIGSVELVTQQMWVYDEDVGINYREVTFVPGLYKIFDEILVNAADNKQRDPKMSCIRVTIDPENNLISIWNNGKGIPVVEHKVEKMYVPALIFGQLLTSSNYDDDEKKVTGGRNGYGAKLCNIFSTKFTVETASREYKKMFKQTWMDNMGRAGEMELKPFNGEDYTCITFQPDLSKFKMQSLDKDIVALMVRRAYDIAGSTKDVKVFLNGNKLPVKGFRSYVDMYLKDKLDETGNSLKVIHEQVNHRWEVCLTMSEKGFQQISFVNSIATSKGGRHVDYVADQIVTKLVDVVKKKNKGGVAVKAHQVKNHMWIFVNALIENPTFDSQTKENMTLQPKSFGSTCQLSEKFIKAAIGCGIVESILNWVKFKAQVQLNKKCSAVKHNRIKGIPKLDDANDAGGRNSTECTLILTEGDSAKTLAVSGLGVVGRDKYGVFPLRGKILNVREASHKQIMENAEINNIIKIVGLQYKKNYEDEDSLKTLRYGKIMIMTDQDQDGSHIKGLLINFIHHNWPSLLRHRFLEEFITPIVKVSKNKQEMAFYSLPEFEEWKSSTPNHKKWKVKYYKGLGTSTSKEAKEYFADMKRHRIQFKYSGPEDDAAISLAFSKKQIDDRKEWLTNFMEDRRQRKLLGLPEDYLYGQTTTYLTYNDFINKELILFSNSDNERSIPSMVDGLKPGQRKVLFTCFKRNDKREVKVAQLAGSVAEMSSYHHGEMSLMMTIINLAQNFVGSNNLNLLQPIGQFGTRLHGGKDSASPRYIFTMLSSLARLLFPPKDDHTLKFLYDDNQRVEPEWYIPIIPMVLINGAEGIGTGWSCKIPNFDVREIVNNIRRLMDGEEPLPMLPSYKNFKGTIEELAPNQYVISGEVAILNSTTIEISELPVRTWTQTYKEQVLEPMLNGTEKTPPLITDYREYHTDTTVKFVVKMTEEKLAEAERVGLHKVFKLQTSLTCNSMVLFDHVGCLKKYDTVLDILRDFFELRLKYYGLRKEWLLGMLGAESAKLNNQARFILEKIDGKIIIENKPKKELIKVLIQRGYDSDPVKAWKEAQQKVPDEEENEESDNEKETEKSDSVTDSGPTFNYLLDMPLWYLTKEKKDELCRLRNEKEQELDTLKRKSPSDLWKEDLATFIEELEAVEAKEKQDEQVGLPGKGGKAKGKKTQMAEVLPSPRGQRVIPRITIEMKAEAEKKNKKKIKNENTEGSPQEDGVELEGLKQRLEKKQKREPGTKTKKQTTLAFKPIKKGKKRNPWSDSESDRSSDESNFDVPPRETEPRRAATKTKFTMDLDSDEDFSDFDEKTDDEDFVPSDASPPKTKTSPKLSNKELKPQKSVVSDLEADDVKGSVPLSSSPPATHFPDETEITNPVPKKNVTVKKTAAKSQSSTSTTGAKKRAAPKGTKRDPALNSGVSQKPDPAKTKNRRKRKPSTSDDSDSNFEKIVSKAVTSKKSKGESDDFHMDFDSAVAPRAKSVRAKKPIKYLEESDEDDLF
Sequence of DNA topoisomerase 2-beta (Q02880 whole entry): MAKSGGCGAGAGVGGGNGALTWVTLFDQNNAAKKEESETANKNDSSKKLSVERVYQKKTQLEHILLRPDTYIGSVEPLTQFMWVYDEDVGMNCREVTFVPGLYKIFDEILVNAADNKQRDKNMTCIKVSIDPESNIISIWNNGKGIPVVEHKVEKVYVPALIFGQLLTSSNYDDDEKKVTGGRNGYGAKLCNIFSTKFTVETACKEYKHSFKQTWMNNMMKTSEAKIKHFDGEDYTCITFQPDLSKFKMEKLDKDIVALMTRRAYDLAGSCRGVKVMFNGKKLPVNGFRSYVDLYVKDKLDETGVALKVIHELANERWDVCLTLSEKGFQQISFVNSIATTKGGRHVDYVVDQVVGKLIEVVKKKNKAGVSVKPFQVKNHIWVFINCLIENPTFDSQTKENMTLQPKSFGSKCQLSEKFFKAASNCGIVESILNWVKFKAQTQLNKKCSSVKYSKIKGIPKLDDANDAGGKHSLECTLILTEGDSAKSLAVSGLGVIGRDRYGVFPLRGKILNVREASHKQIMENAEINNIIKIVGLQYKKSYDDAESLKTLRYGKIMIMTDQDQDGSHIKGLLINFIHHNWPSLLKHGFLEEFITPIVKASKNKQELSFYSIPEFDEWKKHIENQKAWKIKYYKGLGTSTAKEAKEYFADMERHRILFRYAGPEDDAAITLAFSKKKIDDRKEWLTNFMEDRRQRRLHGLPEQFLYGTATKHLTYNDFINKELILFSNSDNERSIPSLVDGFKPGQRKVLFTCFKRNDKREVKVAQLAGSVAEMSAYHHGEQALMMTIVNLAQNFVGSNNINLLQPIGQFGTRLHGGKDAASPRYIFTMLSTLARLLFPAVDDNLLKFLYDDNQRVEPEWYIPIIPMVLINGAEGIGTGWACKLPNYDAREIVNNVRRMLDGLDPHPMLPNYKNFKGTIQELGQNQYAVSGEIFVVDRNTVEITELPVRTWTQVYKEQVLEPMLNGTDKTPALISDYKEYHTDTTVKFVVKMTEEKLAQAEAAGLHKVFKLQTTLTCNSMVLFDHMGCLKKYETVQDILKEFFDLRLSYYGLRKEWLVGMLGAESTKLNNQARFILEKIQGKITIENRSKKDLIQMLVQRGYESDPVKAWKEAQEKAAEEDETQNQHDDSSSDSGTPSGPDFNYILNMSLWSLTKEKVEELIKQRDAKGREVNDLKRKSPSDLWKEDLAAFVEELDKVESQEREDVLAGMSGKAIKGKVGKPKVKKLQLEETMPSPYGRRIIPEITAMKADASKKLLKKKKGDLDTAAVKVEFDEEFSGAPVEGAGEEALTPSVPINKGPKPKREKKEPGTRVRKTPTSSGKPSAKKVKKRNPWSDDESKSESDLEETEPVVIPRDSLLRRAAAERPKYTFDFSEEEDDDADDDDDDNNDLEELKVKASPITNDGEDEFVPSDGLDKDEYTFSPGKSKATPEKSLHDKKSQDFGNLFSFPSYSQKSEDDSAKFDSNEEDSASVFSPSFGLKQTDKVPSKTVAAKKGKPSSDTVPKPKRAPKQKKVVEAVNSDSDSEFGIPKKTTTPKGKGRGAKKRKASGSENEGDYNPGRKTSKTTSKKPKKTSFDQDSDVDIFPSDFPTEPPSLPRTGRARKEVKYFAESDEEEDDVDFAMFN

Consider `Cc1[nH]c(C(=O)Nc2ccc(C(=O)NCCN)cc2OC(C)C)c(Cl)c1Cl.Cl`, for which the result in series [1], in [3], in series [4], in series [5], in [6] and in series [7] was Active. Further, the outcome in series [9], in series [10], in [12], in series [14], in series [15] and in [16] was Active. In series [2], the half-life at 100 µM was greater than 5 h. The solubility thermodynamic at 24 h in [8] stood at 16 µM. Further, the IC50 is 2800 nM in series [11] and 6000 nM in series [13].
Take `Cc1[nH]c(C(=O)Nc2ccc(C(N)=O)cc2OCc2ccc(C(=O)NCCN)cc2)c(Cl)c1Cl.Cl.Cl`: the half-life at 100 µM in [2] was 1.67 h. In addition, the solubility thermodynamic at 24 h in series [8] came to 9.2 µM. In addition, the half-maximal inhibitory concentration (IC50) in [17] was greater than 5000 nM; in series [13], 670 nM; in series [18], 550 nM.

As usually defined, the half-life is the time in which the quantity being followed falls by half. One may read the IC50 as the concentration at which inhibition is half-maximal.
